From patent US20050048108A1, “Sulphur-containing amphiphilic agents for the transfer of biologically active molecules into cells” (G.O.T. Therapeutics GMBH, priority 2000, published 2005)

System: HeLa (human cervical carcinoma), F98 (rat glioblastoma), IMR90 (human embryonic lung) cell lines
Experiment: Transfection of adherent cell lines with pUT 651 plasmid (lacZ / β-galactosidase reporter)
Assay type: cell-based
Conditions: all investigated cell lines, versus Lipofectin, LipofectAMINE, DOTAP and DAC-30
Experimental: The gene transfer properties of the lipids according to the invention (lipid 9 (Sulfectin A) and lipid 10 (Sulfectin B)) were tested on various cell lines and were compared with the reagents known heretofore (FIGS. 3, 4 and 5). A plasmid coded for β-galactosidase was used as the reporter system. In the trials, the lipids were also mixed with, among other things, the neutral auxiliary lipid 1,2-dioleoyl-sn-glycero-3-phosphoethanolamine (DOPE). […] Among others a β-galactosidase expression up to 10 times higher was found. This is the more surprising in that in most cases (IMR90 and F98 cells) no admixture of an a helper lipid was necessary. With all the commercial lipids, on the other hand, a portion of DOPE was indispensable for an efficient gene transfer. The high gene transfer efficiency of the pure lipid is also advantageous for the production of the gene transfer reagent, since the formulation step of the cationic lipid and auxiliary lipid is omitted. […]
After a transfection time of 24 h, the medium is changed and the cells are incubated for a further 48 h. […] The lysate is treated with chlorophenol red β-galactopyranoside (Roche Diagnostics, 1 mg/ml in HBSS) as a substrate for β-galactosidase, and the optical density at different intervals is determined with a microplate reader (Dynex) (measurement wavelength 540 nm, reference wavelength 630 nm).

Structure (SMILES) | gene transfer (transfection) efficiency compared with the known lipids
CCCCCCCC/C=C\CCCCCCCC(=O)OCC(CCS(=O)(=O)CCCN)OC(=O)CCCCCCC/C=C\CCCCCCCC.O=C(O)C(F)(F)F (centres unmarked) [lipid 9, 3-[(3,4-dioleoyloxybutyl)-sulfonyl]propyl-1-ammonium trifluoroacetate] | markedly higher efficiency
CCCCCCCC/C=C\CCCCCCCC(=O)OCC(CC[S+]([O-])CCCN)OC(=O)CCCCCCC/C=C\CCCCCCCC.O=C(O)C(F)(F)F (centres unmarked) [lipid 10, 3-[(3,4-dioleoyloxybutyl)-sulfinyl]propyl-1-ammonium trifluoroacetate] | markedly higher efficiency
